According to the supplement of paper PMC8671470:

Tested on: myeloid leukemia patient primary cells Pat.10
Assay: cell viability (% survival relative to DMSO control); higher = less cytotoxic
Details: 1000 nM; 72 h
How it was run: (§1)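 Where an area under the curve appears, it was computed with the drc and PharmacoGx R packages from log-logistic fits. Those fits used four parameters. The underlying viability data came from CellTiter-Glo after 72 h, normalised to DMSO and 10 μM proteasome-inhibitor wells, with thawed, Ficoll-purified AML or CML patient mononuclear cells at 10,000 cells/well in RPMI 1640 with 10% FBS on 384-well plates pre-printed with 70 compounds at five tenfold concentrations (1–10,000 nM) in duplicate.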

SMILES	cell viability [%]
O=C1O/C(=C/Br)CCC1c1cccc2ccccc12 (centres undefined) [Bromoenol Lactone]	10.6
Nc1nc(Cl)nc2c1ncn2[C@H]1C[C@H](O)[C@@H](CO)O1 [Cladribine]	2.16
N#CC(C#N)=NNc1ccc(OC(F)(F)F)cc1 [FCCP]	7.03
O=C1c2cc([N+](=O)[O-])ccc2-n2c1nc1ccccc1c2=O [GNF-Pf-3777]	36.6
O=C(O)Cn1nnc(-c2cc(N3CCC(Oc4cc(F)ccc4Br)CC3)no2)n1 [MK-8245]	54.5
C=C(C=NNC(=N)N)NNC(=N)N [Mitoguazone]	28.1
COc1cc(/C=C/C(=O)N2CCC=CC2=O)cc(OC)c1OC [Piperlongumine]	45.5
C=C(C)[C@H]1Cc2c(ccc3c2O[C@@H]2COc4cc(OC)c(OC)cc4[C@@H]2C3=O)O1 [Rotenone]	30
Oc1ccc(Nc2nc(-c3ccc(Cl)cc3)cs2)cc1 [SKI II]	9.05
CC[C@@]1(O)C(=O)OCc2c1cc1n(c2=O)Cc2cc3c(CN(C)C)c(O)ccc3nc2-1 [Topotecan]	6.65

Same assay, conditions: 10000 nM; 72 h

SMILES	cell viability [%]
O=C(C1CC1)N1CC[C@@H](C=C2NNC(=O)N2c2ccc(-c3ccc4occc4c3)cc2)C1	47.8
C[C@H](NC(=O)c1sccc1OCc1ccc(Cl)cc1)c1ccccc1	< 0
O=C(O)C1=CC(=C(c2ccc(O)c(C(=O)O)c2)c2ccc(O)c(C(=O)O)c2)C=CC1=O [Aurintricarboxylic acid]	> 100
COC(=O)[C@]12CCC(C)(C)C[C@H]1[C@H]1C(=O)C=C3[C@@]4(C)C=C(C#N)C(=O)C(C)(C)[C@@H]4CC[C@@]3(C)[C@]1(C)CC2 [Bardoxolone methyl]	91.9
Cc1c(-c2ccc(-c3ccccc3F)cc2)nc2ccc(F)cc2c1C(=O)O [Brequinar]	57.7
O=C1O/C(=C/Br)CCC1c1cccc2ccccc12 (centres undefined) [Bromoenol Lactone]	< 0
Nc1nc(Cl)nc2c1ncn2[C@H]1C[C@H](O)[C@@H](CO)O1 [Cladribine]	6.29
N#CC(C#N)=NNc1ccc(OC(F)(F)F)cc1 [FCCP]	2.16
O=C1c2cc([N+](=O)[O-])ccc2-n2c1nc1ccccc1c2=O [GNF-Pf-3777]	15.5
O=C(O)Cn1nnc(-c2cc(N3CCC(Oc4cc(F)ccc4Br)CC3)no2)n1 [MK-8245]	4.72
C=C(C=NNC(=N)N)NNC(=N)N [Mitoguazone]	89.2
COc1cc(/C=C/C(=O)N2CCC=CC2=O)cc(OC)c1OC [Piperlongumine]	> 100
C=C(C)[C@H]1Cc2c(ccc3c2O[C@@H]2COc4cc(OC)c(OC)cc4[C@@H]2C3=O)O1 [Rotenone]	20.9
Oc1ccc(Nc2nc(-c3ccc(Cl)cc3)cs2)cc1 [SKI II]	81.9
CC[C@@]1(O)C(=O)OCc2c1cc1n(c2=O)Cc2cc3c(CN(C)C)c(O)ccc3nc2-1 [Topotecan]	1.3

Tested on: myeloid leukemia patient primary cells Pat.8
Assay: as above
Details: 1 nM; 72 h
How it was run: as §1

SMILES	cell viability [%]
O=C(C1CC1)N1CC[C@@H](C=C2NNC(=O)N2c2ccc(-c3ccc4occc4c3)cc2)C1	85.5
C[C@H](NC(=O)c1sccc1OCc1ccc(Cl)cc1)c1ccccc1	72.9
O=C(O)C1=CC(=C(c2ccc(O)c(C(=O)O)c2)c2ccc(O)c(C(=O)O)c2)C=CC1=O [Aurintricarboxylic acid]	92.5
COC(=O)[C@]12CCC(C)(C)C[C@H]1[C@H]1C(=O)C=C3[C@@]4(C)C=C(C#N)C(=O)C(C)(C)[C@@H]4CC[C@@]3(C)[C@]1(C)CC2 [Bardoxolone methyl]	67.7
Cc1c(-c2ccc(-c3ccccc3F)cc2)nc2ccc(F)cc2c1C(=O)O [Brequinar]	91.5
O=C1O/C(=C/Br)CCC1c1cccc2ccccc12 (centres undefined) [Bromoenol Lactone]	75.9
Nc1nc(Cl)nc2c1ncn2[C@H]1C[C@H](O)[C@@H](CO)O1 [Cladribine]	88.1
N#CC(C#N)=NNc1ccc(OC(F)(F)F)cc1 [FCCP]	71.4
O=C1c2cc([N+](=O)[O-])ccc2-n2c1nc1ccccc1c2=O [GNF-Pf-3777]	97.5
O=C(O)Cn1nnc(-c2cc(N3CCC(Oc4cc(F)ccc4Br)CC3)no2)n1 [MK-8245]	> 100
C=C(C=NNC(=N)N)NNC(=N)N [Mitoguazone]	94.1
COc1cc(/C=C/C(=O)N2CCC=CC2=O)cc(OC)c1OC [Piperlongumine]	79.2
C=C(C)[C@H]1Cc2c(ccc3c2O[C@@H]2COc4cc(OC)c(OC)cc4[C@@H]2C3=O)O1 [Rotenone]	70.8
Oc1ccc(Nc2nc(-c3ccc(Cl)cc3)cs2)cc1 [SKI II]	82.4
CC[C@@]1(O)C(=O)OCc2c1cc1n(c2=O)Cc2cc3c(CN(C)C)c(O)ccc3nc2-1 [Topotecan]	76.3

Same assay, conditions: 10 nM; 72 h

SMILES	cell viability [%]
O=C(C1CC1)N1CC[C@@H](C=C2NNC(=O)N2c2ccc(-c3ccc4occc4c3)cc2)C1	95.4
C[C@H](NC(=O)c1sccc1OCc1ccc(Cl)cc1)c1ccccc1	85.9
O=C(O)C1=CC(=C(c2ccc(O)c(C(=O)O)c2)c2ccc(O)c(C(=O)O)c2)C=CC1=O [Aurintricarboxylic acid]	87.6
COC(=O)[C@]12CCC(C)(C)C[C@H]1[C@H]1C(=O)C=C3[C@@]4(C)C=C(C#N)C(=O)C(C)(C)[C@@H]4CC[C@@]3(C)[C@]1(C)CC2 [Bardoxolone methyl]	97.5
Cc1c(-c2ccc(-c3ccccc3F)cc2)nc2ccc(F)cc2c1C(=O)O [Brequinar]	82
O=C1O/C(=C/Br)CCC1c1cccc2ccccc12 (centres undefined) [Bromoenol Lactone]	91.1
Nc1nc(Cl)nc2c1ncn2[C@H]1C[C@H](O)[C@@H](CO)O1 [Cladribine]	77.7
N#CC(C#N)=NNc1ccc(OC(F)(F)F)cc1 [FCCP]	91.6
O=C1c2cc([N+](=O)[O-])ccc2-n2c1nc1ccccc1c2=O [GNF-Pf-3777]	94.9
O=C(O)Cn1nnc(-c2cc(N3CCC(Oc4cc(F)ccc4Br)CC3)no2)n1 [MK-8245]	89.4
C=C(C=NNC(=N)N)NNC(=N)N [Mitoguazone]	69
COc1cc(/C=C/C(=O)N2CCC=CC2=O)cc(OC)c1OC [Piperlongumine]	89.3
C=C(C)[C@H]1Cc2c(ccc3c2O[C@@H]2COc4cc(OC)c(OC)cc4[C@@H]2C3=O)O1 [Rotenone]	79.3
Oc1ccc(Nc2nc(-c3ccc(Cl)cc3)cs2)cc1 [SKI II]	80.7
CC[C@@]1(O)C(=O)OCc2c1cc1n(c2=O)Cc2cc3c(CN(C)C)c(O)ccc3nc2-1 [Topotecan]	69.7

Same assay, conditions: 100 nM; 72 h

SMILES	cell viability [%]
O=C(C1CC1)N1CC[C@@H](C=C2NNC(=O)N2c2ccc(-c3ccc4occc4c3)cc2)C1	74
C[C@H](NC(=O)c1sccc1OCc1ccc(Cl)cc1)c1ccccc1	87.7
O=C(O)C1=CC(=C(c2ccc(O)c(C(=O)O)c2)c2ccc(O)c(C(=O)O)c2)C=CC1=O [Aurintricarboxylic acid]	79.7
COC(=O)[C@]12CCC(C)(C)C[C@H]1[C@H]1C(=O)C=C3[C@@]4(C)C=C(C#N)C(=O)C(C)(C)[C@@H]4CC[C@@]3(C)[C@]1(C)CC2 [Bardoxolone methyl]	78.5
